Experimental data from patent US20140249135A1, “PIM KINASE INHIBITORS AND METHODS OF THEIR USE” (NOVARTIS AG, priority 2007, published 2014).
Like-named read-outs stand apart in the source and are kept apart here.

Legend:
[1] = molecular target: Pim2 kinase (Homo sapiens, UniProt Q9P1W9); experiment: Pim2 ATP depletion assay; format: biochemical;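 note: Luciferase-based luminescent readout of ATP remaining after PIM2 phosphorylates a BAD peptide, final 5 nM enzyme, 4 µM ATP, 10 µM peptide, 2.5% DMSO, run to roughly half ATP consumption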
Sequence of Pim2 kinase (Q9P1W9 whole entry): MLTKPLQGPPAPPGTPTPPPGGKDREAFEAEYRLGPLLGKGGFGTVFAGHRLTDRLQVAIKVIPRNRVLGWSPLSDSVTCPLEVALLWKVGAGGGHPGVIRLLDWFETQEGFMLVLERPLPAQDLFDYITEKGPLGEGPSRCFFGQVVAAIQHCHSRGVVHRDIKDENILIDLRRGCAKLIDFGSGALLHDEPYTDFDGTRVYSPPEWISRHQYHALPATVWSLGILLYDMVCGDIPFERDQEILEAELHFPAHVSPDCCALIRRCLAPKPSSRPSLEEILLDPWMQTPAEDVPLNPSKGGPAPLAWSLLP

[2] = molecular target: Pim3 kinase (Homo sapiens, UniProt Q86V86); experiment: Pim3 ATP depletion assay; format: biochemical
[3] = molecular target: Pim1 kinase (Homo sapiens, UniProt P11309); experiment: Pim1 ATP depletion assay; format: biochemical; settings: Pim1 ATP depletion assay;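 note: Luciferase-luciferin luminescence readout of residual ATP after PIM1 transfers phosphate to a peptide substrate, 40 µM ATP added, reaction run to roughly half ATP consumption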
Sequence of Pim1 kinase (P11309 whole entry): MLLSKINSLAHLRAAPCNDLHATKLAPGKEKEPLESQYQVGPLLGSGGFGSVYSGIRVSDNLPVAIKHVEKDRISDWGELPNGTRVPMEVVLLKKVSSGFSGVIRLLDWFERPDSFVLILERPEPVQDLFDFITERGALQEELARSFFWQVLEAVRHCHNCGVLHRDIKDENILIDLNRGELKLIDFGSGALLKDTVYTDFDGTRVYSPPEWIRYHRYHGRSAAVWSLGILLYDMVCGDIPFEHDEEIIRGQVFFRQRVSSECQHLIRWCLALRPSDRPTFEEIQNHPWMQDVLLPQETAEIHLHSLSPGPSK

[4] = tested on: HEL 92.1.7 cells; experiment: Cell proliferation assay (CellTiter-Glo), HEL 92.1.7; format: cell-based; settings: Homo sapiens
Method: HEL 92.1.7 cells (ATTC No. TIB-180, an erythroleukemia line derived from malignant peripheral blood), MV4-11 cells (ATCC No. CRL-9591, a human acute monocytic leukemia line) and PC3 cells (ATCC No. CRL-1435, a human prostatic adenocarcinoma line) were cultured in RPMI1640 supplemented with 10% FBS, sodium pyruvate and antibiotics. Cells were plated in the same medium at a density of 1000 cells per well into 96 well tissue culture plates, with outside wells vacant, on the day of assay.
Test compounds supplied in DMSO were diluted into DMSO at 500 times the desired final concentrations before dilution into culture media to 2 times final concentrations. Equal volumes of 2× compounds were added to the cells in 96 well plates and incubated at 37° C. for 3 days.
After 3 days plates were equilibrated to room temperature and equal volume of CellTiter-Glow Reagent (Promega) was added to the culture wells. The plates were agitated briefly and luminescent signal was measured with luminometer. The percent inhibition of the signal seen in cells treated with DMSO alone vs. cells treated with control compound was calculated and used to determine EC50 values (i.e., the concentration of a test compound that is required to obtain 50% of the maximum effect in the cells) for tested compounds, as shown in Example 763.

[5] = molecular target: T1, human full length PKCE enzyme (Homo sapiens, UniProt Q02156); experiment: In vitro PKCE assay; format: biochemical; settings: 10 nM enzyme, 40 uM peptide substrate, 20 uM ATP, KinaseGlo Plus readout; read-out: PKCε IC50
T1 construct: human full length PKCE enzyme purchased from InVitrogen; purchased InVitrogen
T1 sequence (Q02156 1-737): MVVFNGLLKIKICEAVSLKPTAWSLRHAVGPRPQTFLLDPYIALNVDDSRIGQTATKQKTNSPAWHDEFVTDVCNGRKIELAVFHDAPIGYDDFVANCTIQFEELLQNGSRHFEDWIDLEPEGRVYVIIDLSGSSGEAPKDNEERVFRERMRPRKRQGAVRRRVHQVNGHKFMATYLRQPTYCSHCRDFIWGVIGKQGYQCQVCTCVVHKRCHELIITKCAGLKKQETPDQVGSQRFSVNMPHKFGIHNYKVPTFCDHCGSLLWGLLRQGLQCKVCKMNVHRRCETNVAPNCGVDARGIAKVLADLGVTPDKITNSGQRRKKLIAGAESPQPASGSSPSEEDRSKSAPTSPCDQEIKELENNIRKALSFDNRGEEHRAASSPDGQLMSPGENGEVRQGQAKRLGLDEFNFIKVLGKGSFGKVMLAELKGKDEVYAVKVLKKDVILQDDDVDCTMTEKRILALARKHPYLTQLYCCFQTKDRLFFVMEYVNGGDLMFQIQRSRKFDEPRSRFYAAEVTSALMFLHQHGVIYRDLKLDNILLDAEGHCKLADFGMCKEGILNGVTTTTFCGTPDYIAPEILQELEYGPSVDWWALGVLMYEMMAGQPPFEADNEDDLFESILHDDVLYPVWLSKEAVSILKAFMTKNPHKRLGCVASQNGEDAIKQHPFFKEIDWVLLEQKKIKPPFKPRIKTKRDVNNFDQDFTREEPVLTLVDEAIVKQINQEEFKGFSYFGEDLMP

| Compound | IC50 ([1]; read-out: IC50 (μM) PIM2) [µM] | IC50 ([2]; read-out: IC50 (μM) PIM3) [µM] | IC50 ([3]; read-out: IC50 (μM) PIM1) [µM] | EC50 ([4]; read-out: EC50 (μM) HEL 92.1.7) [µM] | IC50 [5] [nM] | IC50 ([1]; read-out: PIM2 IC50) [µM] | IC50 ([2]; read-out: PIM3 IC50) [µM] | IC50 ([3]; read-out: PIM1 IC50) [µM] | EC50 ([4]; read-out: HEL 92.1.7 EC50) [µM] |
| --- | --- | --- | --- | --- | --- | --- | --- | --- | --- |
| COc1ccc(F)cc1-c1ccc(N)c(C(=O)Nc2cnccc2N2CCC[C@H](N)C2)n1 [Example 427, 3-amino-6-(5-fluoro-2-methoxy-phenyl)-pyridine-2-carboxylic acid ((S)-3-amino-3,4,5,6-tetra-hydro-2H-[1,4′]bipyridinyl-3′-yl)-amide] | < 1 | < 1 | < 1 | 1 to 5 | 10000 to 25000 |  |  |  |  |
| Nc1ncc(-c2cccc(Cl)c2)nc1C(=O)Nc1cnccc1N1CCCC(N)C1 (centres unmarked) [Example 352, 3-amino-6-(3-chloro-phenyl)-pyrazine-2-carboxylic acid (3-amino-3,4,5,6-tetrahydro-2H-[1,4′]bipyridinyl-3′-yl)-amide] | < 1 | < 1 | < 1 | < 1 | < 1000 |  |  |  |  |
| Nc1ncc(Br)nc1C(=O)Nc1[nH]c(=O)ncc1N1CCCC(N)C1 (centres unmarked) [Example 239, 3-amino-N-[5-(3-aminopiperidin-1-yl)-2-oxo-2,3-dihydro-pyrimidin-4-yl]-6-bromo-pyrazine-2-carboxamide] | < 1 | < 1 | < 1 | > 10 | < 1000 |  |  |  |  |
| Nc1ncc(-c2ccccc2F)nc1C(=O)Nc1[nH]c(=O)ncc1N1CCCC(N)C1 (centres unmarked) [Example 401, 3-amino-6-(2-fluoro-phenyl)-pyrazine-2-carboxylic acid [5-(3-amino-piperidin-1-yl)-2-oxo-2,3-dihydro-pyrimidin-4-yl]-amide] | < 1 | < 1 | < 1 | 5 to 10 | < 1000 |  |  |  |  |
| Nc1ncc(Br)nc1C(=O)Nc1[nH]c(=O)ncc1-c1cccs1 [Example 142, 3-amino-6-bromo-N-[2-oxo-5-(2-thienyl)-2,3-dihydro-pyrimidin-4-yl]pyrazine-2-carboxamide] | < 1 | < 1 | < 1 | 1 to 5 | 1000 to 10000 |  |  |  |  |
| Nc1ncc(Br)nc1C(=O)Nc1[nH]c(=O)ncc1N1CCC(F)CC1 [Example 150, 3-amino-6-bromo-N-[5-(4-fluoropiperidin-1-yl)-2-oxo-2,3-dihydropyrimidin-4-yl]pyrazine-2-carboxamide] | < 1 | < 1 | < 1 | 1 to 5 | 1000 to 10000 |  |  |  |  |
| Nc1nccnc1C(=O)Nc1cnccc1N1CCC[C@@H](N)C1 [Example 177, 3-amino-N-{4-[(3R)-3-amino-piperidin-1-yl]pyridin-3-yl}pyrazine-2-carboxamide] | < 1 | < 1 |  | > 10 | < 1000 |  |  |  |  |
| Nc1ncc(-c2cccnc2)nc1C(=O)Nc1cnccc1N1CCCC(N)C1 (centres unmarked) [Example 356, 3-amino-6-pyridin-3-yl-pyrazine-2-carboxylic acid (3-amino-3,4,5,6-tetrahydro-2H-[1,4′]bipyridinyl-3′-yl)-amide] | < 1 | < 1 | < 1 | > 10 | 1000 to 10000 |  |  |  |  |
| Nc1nc(N)c(C(=O)Nc2[nH]c(=O)ncc2N2CCCC(C(F)(F)F)C2)nc1Cl (centres unmarked) [Example 148, 3,5-diamino-6-chloro-N-{2-oxo-5-[3-(trifluoromethyl)piperidin-1-yl]-2,3-dihydropyrimidin-4-yl}pyrazine-2-carboxamide] | < 1 | < 1 | < 1 | > 10 | 10000 to 25000 |  |  |  |  |
| Nc1nccnc1C(=O)Nc1[nH]c(=O)ncc1N1CCCC(C(F)(F)F)C1 (centres unmarked) [Example 146, 3-amino-N-{2-oxo-5-[3-(trifluoromethyl)piperidin-1-yl]-2,3-dihydropyrimidin-4-yl}-pyrazine-2-carboxamide] | < 1 | < 1 | < 1 | > 10 | < 1000 |  |  |  |  |
| Nc1ncc(Br)nc1C(=O)Nc1[nH]c(=O)ncc1N1CCCC(C(F)(F)F)C1 (centres unmarked) [Example 147, 3-amino-6-bromo-N-{2-oxo-5-[3-(trifluoromethyl)piperidin-1-yl]-2,3-dihydropyrimidin-4-yl}-pyrazine-2-carboxamide] | < 1 | < 1 | < 1 | 5 to 10 | < 1000 |  |  |  |  |
| Nc1ncc(Br)nc1C(=O)Nc1[nH]c(=O)ncc1-c1ccccn1 [Example 145, 3-amino-6-bromo-N-(2-oxo-5-pyridin-2-yl-2,3-dihydro-pyrimidin-4-yl)pyrazine-2-carboxamide] | < 1 | < 1 | < 1 | 1 to 5 | > 25000 |  |  |  |  |
| Nc1ncc(-c2ccccc2F)nc1C(=O)Nc1cnccc1N1CCCC(N)C1 (centres unmarked) [Example 350, 3-amino-6-(2-fluoro-phenyl)-pyrazine-2-carboxylic acid (3-amino-3,4,5,6-tetrahydro-2H-[1,4′]bipyridinyl-3′-yl)-amide] | < 1 | < 1 | < 1 | < 1 | < 1000 |  |  |  |  |
| Nc1ncc(-c2ccccc2Cl)nc1C(=O)Nc1cnccc1N1CCCC(N)C1 (centres unmarked) [Example 346, 3-amino-6-(2-chloro-phenyl)-pyrazine-2-carboxylic acid (3-amino-3,4,5,6-tetrahydro-2H-[1,4′]bipyridinyl-3′-yl)-amide] | < 1 | < 1 | < 1 | < 1 | < 1000 |  |  |  |  |
| COc1ncccc1-c1ccc(N)c(C(=O)Nc2cnccc2N2CCCCC2)n1 [Example 587, 5-amino-2′-methoxy-[2,3′]bi-pyridinyl-6-carboxylic acid (3,4,5,6-tetrahydro-2H-[1,4′]bipyridinyl-3′-yl)-amide] |  |  |  |  |  | < 1 | < 1 | < 1 | < 1 |
| COc1cc(F)ccc1-c1ccc(N)c(C(=O)Nc2cnccc2N2CCC[C@H](N)C2)n1 [Example 428, 3-amino-6-(4-fluoro-2-methoxy-phenyl)-pyridine-2-carboxylic acid ((S)-3-amino-3,4,5,6-tetra-hydro-2H-[1,4′]bipyridinyl-3′-yl)-amide] | < 1 | < 1 | < 1 | 5 to 10 |  |  |  |  |  |
| Nc1ccc(-c2ccncc2F)nc1C(=O)Nc1cnccc1N1CCC[C@H](N)C1 [Example 339, 5-amino-3′-fluoro-[2,4′]bi-pyridinyl-6-carboxylic acid ((S)-3-amino-3,4,5,6-tetra-hydro-2H-[1,4′]bipyridinyl-3′-yl)-amide] | < 1 | < 1 | < 1 | 1 to 5 |  |  |  |  |  |
| COc1cccc(-c2ccc(N)c(C(=O)Nc3cnccc3N3CCC[C@H](N)C3)n2)n1 [Example 413, 5-amino-6′-methoxy-[2,2′]bi-pyridinyl-6-carboxylic acid ((S)-3-amino-3,4,5,6-tetrahydro-2H-[1,4′]bipyridinyl-3′-yl)-amide] | < 1 | < 1 | < 1 | < 1 |  |  |  |  |  |
| CNC(=O)c1ccc(F)c(-c2ccc(N)c(C(=O)Nc3cnccc3N3CCC[C@H](N)C3)n2)c1 [Example 334, 3-amino-6-(2-fluoro-5-methylcarbamoyl-phenyl)-pyridine-2-carboxylic acid ((S)-3-amino-3,4,5,6-tetra-hydro-2H-[1,4′]bipyridinyl-3′-yl)-amide] | < 1 | < 1 | < 1 | 5 to 10 |  |  |  |  |  |
